# Assay results taken from patent US10227331B2 (priority 2015, dated 2019).
# Key:
# [1] = system: P. aeruginosa expressing IMP-1, efflux+ (MB9798); format: cell-based, Pseudomonas aeruginosa; conditions: for P. aeruginosa expressing IMP-1, efflux+ (MB9798) MITC95: imipenem at 2 μg/mL, in the presence of a class A, C, D serine β-lactamase inhibitor closely related to relebactam; for Efflux ratio: ratio MITC95 PA_9798/MITC95 PA_9799
# Source text: (§1) The strain background is Pseudomonas aeruginosa PAO1.
# [2] = system: P. aeruginosa expressing IMP-1, efflux− (MB9799); assay: Efflux: concentration of MBL inhibitor which restores susceptibility to imipenem; format: cell-based, Pseudomonas aeruginosa; conditions: imipenem at 2 μg/mL, in the presence of a class A, C, D serine β-lactamase inhibitor closely related to relebactam
# Source text: as §1
# [3] = system: Klebsiella pneumoniae expressing VIM-1 (IHMA599644); format: cell-based; conditions: with imipenem 1 μg/ml; 95% inhibition of bacterial growth
# Method in brief: (§2)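 Colonies from overnight 35 °C blood-agar cultures were suspended in saline, diluted 1:100 into 1.1× CAMHB and exposed to test compound with or without imipenem at 1 μg/ml. After 22–24 h at 35 °C, absorbance was read to find the concentration restoring imipenem susceptibility.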
# [4] = system: Escherichia coli expressing NDM-1 (CLB30005, CLB30016); format: cell-based; conditions: with imipenem 1 μg/ml; 95% inhibition of bacterial growth
# Method in brief: as §2
# [5] = system: Serratia marcescens expressing IMP-1 (CL5741); format: cell-based; conditions: with imipenem 1 μg/ml; 95% inhibition of bacterial growth
# Method in brief: as §2
# NDM-1 = NDM-1 (Klebsiella pneumoniae, UniProt C7C422); assay: biochemical; format: biochemical; conditions: CCF2-FA substrate, 2 hours at 25° C; read-out: NDM-1 IC50
# Method in brief: (§3)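 Two-hour, 25° C incubation of enzyme with inhibitor and CCF2-FA (7-hydroxycoumarin–cephalosporin–fluorescein). Fluorescence read-out; IC50 via 4-parameter fit.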
# IMP-1 = IMP-1 (Serratia marcescens, UniProt P52699); assay: biochemical; format: biochemical; conditions: CCF2-FA substrate, 2 hours at 25° C; read-out: IMP-1 IC50
# Method in brief: as §3
# VIM-1 = VIM-1 (Pseudomonas aeruginosa (strain ATCC 15692 / DSM 22644 / CIP 104116 / JCM 14847 / LMG 12228 / 1C / PRS 101 / PAO1), UniProt A0A0F7KYQ8); assay: biochemical; conditions: CCF2-FA substrate, 2 hours at 25° C
# Method in brief: as §3
# NDM-1, sequence (C7C422 whole entry, looked up, species assumed): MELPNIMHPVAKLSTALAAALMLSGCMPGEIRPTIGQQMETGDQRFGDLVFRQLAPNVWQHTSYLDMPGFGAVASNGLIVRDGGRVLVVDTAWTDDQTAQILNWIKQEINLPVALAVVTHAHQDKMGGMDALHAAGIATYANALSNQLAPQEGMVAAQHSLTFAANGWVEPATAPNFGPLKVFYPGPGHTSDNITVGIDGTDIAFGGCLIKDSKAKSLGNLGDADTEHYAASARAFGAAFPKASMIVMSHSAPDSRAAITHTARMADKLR
# IMP-1, sequence (P52699 whole entry, looked up, species assumed): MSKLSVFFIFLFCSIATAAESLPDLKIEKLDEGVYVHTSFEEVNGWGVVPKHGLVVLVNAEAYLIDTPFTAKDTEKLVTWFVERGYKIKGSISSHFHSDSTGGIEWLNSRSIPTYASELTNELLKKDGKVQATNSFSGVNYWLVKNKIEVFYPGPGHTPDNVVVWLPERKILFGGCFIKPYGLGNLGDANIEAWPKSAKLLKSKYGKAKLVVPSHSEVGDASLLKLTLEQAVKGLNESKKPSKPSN
SMILES,"P. aeruginosa expressing IMP-1, efflux+ (MB9798) MITC95 [1] [µM]",Efflux ratio [1],"P. aeruginosa expressing IMP-1, efflux− (MB9799) MITC95 [2] [µM]",Klebsiella pneumoniae expressing VIM-1 (IHMA599644) MITC95 [3] [µM],Escherichia coli expressing NDM-1 (CLB30016) MITC95 [4] [µM],Serratia marcescens expressing IMP-1 (CL5741) MITC95 [5] [µM],IC50 (NDM-1) [nM],IC50 (IMP-1) [nM],IC50 (VIM-1) [nM]
"NS(=O)(=O)c1c(S(=O)(=O)C2CNC2)ccc([C@H]2CC[C@H](N)CC2)c1-c1nnn[nH]1 [Example 212, 3-((1r,4r)-4-aminocyclohexyl)-6-(azetidin-3-ylsulfonyl)-2-(1H-tetrazol-5-yl) benzenesulfonamide]",1.563,2.00,0.7813,1.563,0.7813,1.563,11.3,30.2,0.864
"NS(=O)(=O)c1c(S(=O)(=O)C2CNC2)ccc([C@H]2CC[C@@H](N)CC2)c1-c1nnn[nH]1 [Example 213, 3-((1s,4s)-4-aminocyclohexyl)-6-(azetidin-3-ylsulfonyl)-2-(1H-tetrazol-5-yl) benzenesulfonamide]",6.25,4.00,1.563,3.125,1.563,1.563,12.9,68.3,7.04
"Nc1nc2cccc(-c3ccc(S(=O)(=O)C4CNC4)c(S(N)(=O)=O)c3-c3nn[nH]n3)n2n1 [Example 214, 3-(2-amino-[1,2,4]triazolo[1,5-a]pyridin-5-yl)-6-(azetidin-3-ylsulfonyl)-2-(2H-tetrazol-5-yl)benzenesulfonamide]",3.125,2.00,1.563,6.25,3.125,3.125,0.139,3.32,0.221
"Nc1nc2ccc(-c3ccc(S(=O)(=O)C4CNC4)c(S(N)(=O)=O)c3-c3nn[nH]n3)cn2n1 [Example 215, 3-(2-amino-[1,2,4]triazolo[1,5-a]pyridin-6-yl)-6-(azetidin-3-ylsulfonyl)-2-(2H-tetrazol-5-yl)benzenesulfonamide]",6.25,2.00,3.125,6.25,3.125,3.125,0.239,2.19,0.298
"Nc1nc2c(-c3ccc(S(=O)(=O)C4CNC4)c(S(N)(=O)=O)c3-c3nn[nH]n3)cccn2n1 [Example 216, 3-(2-amino-[,2,4]triazolo[1,5-a]pyridin-8-yl)-6-(azetidin-3-ylsulfonyl)-2-(2H-tetrazol-5-yl)benzenesulfonamide]",6.25,4.00,1.563,6.25,12.5,3.125,0.102,1.66,0.151
"Nc1nc2cc(-c3ccc(S(=O)(=O)C4CNC4)c(S(N)(=O)=O)c3-c3nn[nH]n3)ccn2n1 [Example 217, 3-(2-amino-[1,2,4]triazolo[1,5-a]pyridin-7-yl)-6-(azetidin-3-ylsulfonyl)-2-(2H-tetrazol-5-yl) benzenesulfonamide]",12.5,8.00,1.563,6.25,6.25,3.125,1.49,3.81,0.313
